Test results published in patent US8008292B2, “Condensed benzamide compounds and inhibitors of vanilloid receptor subtype 1 (VR1) activity” (Japan Tobacco Inc., priority 2004, dated 2011).
pIC50: −log10 of the molar value. Structures can show the parent of a compound that is named as a salt.

Biological target: T1, human VR1 (Homo sapiens, UniProt Q8NER1)
T1 construct: expressed in transfected cells
Experiment: Inhibition of Ca2+ entry in cells caused by proton, in rat glioma (C6BU1) cells stably expressing human VR1 (Fura 2 fluorescence)
Assay type: cell-based
Details: inhibition of proton-induced Ca2+ entry
Protocol: The assay for evaluation of VR1 inhibition by the inventive compounds will be described below. The assay was intended to evaluate in vitro inhibition of Ca^2+ entry in cells caused by proton, one of the VR1 agonists.
Rat glioma (C6BU1) cells stably expressing human VR1 were suspended in 20 mM MES buffer (at pH 6.8, contg. 20 mM 2-morpholinoethanesulfonate (referred to as MES hereinafter), 115 mM NaCl, 5 mM KCl, 1 mM MgCl2 and 14 mM D-glucose) to make a cell density of 1×10^6 cells/mL. A fluorescent dye, Fura 2-AMsolution (DojindoCorporate, Cat. No. 343-05401) was added to the suspension to make a 5 μM concentration thereof. Further, Pluronic F-127 (Wako Pure Chemical Industries, Ltd., Cat. No. P6866) was added to make a 0.1% content thereof. Then, the suspension was incubated at 37° C. for 30 min. The cells were harvested and washed three times with 20 mM MES buffer. The cells were suspended again to make a cell density of 5×10^5 cells/mL. A 500-μL portion of the suspension was taken with a cuvette (MC MEDICAL, INC., Cat. No. SSR3121), to which 10 μL of 20 mM MES buffer containing 250 mM CaCl2 was added to incorporate Ca^2+ into the cells. At the same time, 5 μL of a test compound solution (in a range of 100 μM to 10 nM in DMSO) was also added to provide a final concentration thereof in a range of 1 μM to 0.1 nM. Alternatively, 5 μL of DMSO was added as control to provide a final concentration of 1% DMSO. The suspension was set in an intracellular ionometer (CAF-110; JASCO) 10 min after those additions. The cells were stimulated with protons by addition of 60 μL of 20 mM MES buffer at pH 1.1 to the suspension to set its pH at 5.5. The activity of the test compound was determined as a difference between the minimum of fluorescence intensity before agonist stimulation and its maximum after the stimulation. The value of IC50 was derived from percentage of inhibition by the test compound compared with the control.
In the tables, the symbol “++” indicates an IC50 value less than 100 nM and the symbol “+” indicates an IC50 value of 100 nM to 1,000 nM inclusive.

T1 sequence (Q8NER1 whole entry): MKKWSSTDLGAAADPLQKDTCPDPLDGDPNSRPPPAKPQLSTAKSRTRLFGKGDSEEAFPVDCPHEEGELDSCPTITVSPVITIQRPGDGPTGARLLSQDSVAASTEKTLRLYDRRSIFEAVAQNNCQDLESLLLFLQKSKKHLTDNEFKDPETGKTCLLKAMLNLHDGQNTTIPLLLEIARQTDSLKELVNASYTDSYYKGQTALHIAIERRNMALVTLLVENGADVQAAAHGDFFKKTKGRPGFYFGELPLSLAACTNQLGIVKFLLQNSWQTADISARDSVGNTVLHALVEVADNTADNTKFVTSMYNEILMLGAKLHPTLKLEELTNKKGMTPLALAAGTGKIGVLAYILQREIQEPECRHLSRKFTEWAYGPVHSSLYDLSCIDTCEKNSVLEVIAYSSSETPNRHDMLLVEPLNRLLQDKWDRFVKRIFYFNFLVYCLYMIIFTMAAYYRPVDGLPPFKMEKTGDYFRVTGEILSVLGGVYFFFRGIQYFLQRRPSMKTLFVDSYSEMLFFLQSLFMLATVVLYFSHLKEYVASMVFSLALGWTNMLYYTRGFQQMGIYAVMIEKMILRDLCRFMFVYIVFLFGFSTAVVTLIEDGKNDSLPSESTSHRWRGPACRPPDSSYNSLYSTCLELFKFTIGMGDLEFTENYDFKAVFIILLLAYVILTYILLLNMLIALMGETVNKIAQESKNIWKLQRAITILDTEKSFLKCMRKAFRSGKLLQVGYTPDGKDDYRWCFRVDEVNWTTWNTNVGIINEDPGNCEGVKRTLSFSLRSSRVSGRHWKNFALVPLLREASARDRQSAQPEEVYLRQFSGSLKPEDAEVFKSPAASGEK

Row | SMILES | pIC50
1 | Cc1ccc(N2CCOc3c(C(=O)Nc4ccc(N(CCO)C(C)C)c(F)c4)cccc32)nc1 [Example 1-166] | 6.00 to 7.00
2 | CC(=O)OC1CCN(c2ccc(NC(=O)c3cccc4c3OCCN4c3ccc(C)cn3)cc2F)CC1 [Example 1-170] | 6.00 to 7.00
3 | Cc1ccc(N2CCOc3c(C(=O)Nc4ccc(N5CCC(O)CC5)c(F)c4)cccc32)nc1 [Example 1-171] | 6.00 to 7.00
4 | CCOC(=O)CO[C@H]1CC[C@H](NC(=O)c2cccc3c2OCCN3c2ccc(C)cn2)CC1 [Example 1-176] | 6.00 to 7.00
5 | Cc1ccc(N2CCOc3c(C(=O)N[C@H]4CC[C@H](COC(C)C)CC4)cccc32)nc1 [Example 1-183] | 6.00 to 7.00
6 | Cc1ccc(N2CCOc3c(C(=O)N[C@H]4CC[C@H](OCc5ccccc5)CC4)cccc32)nc1 [Example 1-190] | 6.00 to 7.00
7 | O=C(O)c1cnc(N2CCOc3c(C(=O)Nc4ccc(OC(F)(F)F)c(Cl)c4)cccc32)c(Cl)c1 [Example 1-195] | 6.00 to 7.00
8 | O=C(O)c1cnc(N2CCOc3c(C(=O)Nc4ccc(OC(F)(F)F)cc4)cccc32)c(Cl)c1 [Example 1-196] | 6.00 to 7.00
9 | CCOc1ccc(N2CCOc3c(C(=O)Nc4ccc(OC(F)(F)F)cc4)cccc32)nc1 [Example 1-198] | 6.00 to 7.00
10 | O=C(Nc1ccc(OC(F)(F)F)cc1)c1cccc2c1OCCN2c1ccc(OCCO)cn1 [Example 1-200] | 6.00 to 7.00
11 | O=C(Nc1ccc(OC(F)(F)F)cc1)c1cccc2c1OCCN2c1ccc(O)cn1 [Example 1-201] | 6.00 to 7.00
12 | O=C(OCc1ccccc1)c1cccnc1N1CCOc2c(C(=O)Nc3ccc(OC(F)(F)F)cc3)cccc21 [Example 1-207] | 6.00 to 7.00
13 | O=C(Nc1ccc(OC(F)(F)F)cc1)c1cccc2c1OCCN2c1ncccc1O [Example 1-210] | 6.00 to 7.00
14 | O=C(Nc1ccc(OC(F)(F)F)cc1)c1cccc2c1OCCN2c1ncccc1OCc1ccccn1 [Example 1-216] | 6.00 to 7.00
15 | O=C(Nc1ccc(OC(F)(F)F)cc1)c1cccc2c1OCCN2c1ncccc1OCc1cccnc1 [Example 1-217] | 6.00 to 7.00
16 | N#Cc1ccc(N2CCOc3c(C(=O)Nc4ccc(OC(F)(F)F)cc4)cccc32)nc1 [Example 1-218] | 6.00 to 7.00

Row | SMILES | pIC50
17 | NC(=O)c1cnc(N2CCOc3c(C(=O)Nc4ccc(OC(F)(F)F)cc4)cccc32)c(Cl)c1 [Example 1-227] | > 7.00
18 | CC(=O)NC[C@H]1COc2c(C(=O)Nc3ccc(C(F)(F)F)cc3)cccc2N1c1ncccc1Cl [Example 1-228] | > 7.00
19 | O=C(Nc1ccc(C(F)(F)F)cc1)c1cccc2c1OC[C@H](C(=O)O)N2c1ncccc1Cl [Example 1-229] | 6.00 to 7.00
20 | O=C(Nc1ccc(OC(F)(F)F)cc1)c1cccc2c1OC(CO)CN2c1ncccc1Cl (centres unmarked) [Example 1-231] | 6.00 to 7.00
21 | NC(=O)[C@H]1COc2c(C(=O)Nc3ccc(C(F)(F)F)cc3)cccc2N1c1ncccc1Cl [Example 1-233] | > 7.00
22 | CNC(=O)[C@H]1COc2c(C(=O)Nc3ccc(C(F)(F)F)cc3)cccc2N1c1ncccc1Cl [Example 1-234] | > 7.00
23 | O=C(Nc1ccc2c(c1)OCO2)c1cccc2c1OCCN2c1ncc(CO)cc1Cl [Example 2-01, N-(benzo[1,3]dioxol-5-yl)-4-(3-chloro-5-hydroxymethylpyridin-2-yl)-3,4-dihydro-2H-benzo[1,4]oxazine-8-carboxamide] | 6.00 to 7.00
24 | O=C(Nc1ccc(OC(F)(F)F)cc1)c1cccc2c1OCCN2c1ncc(CO)cc1Cl [Example 2-03, N-(4-trifluoromethoxyphenyl)-4-(3-chloro-5-hydroxymethylpyridin-2-yl)-3,4-dihydro-2H-benzo[1,4]oxazine-8-carboxamide] | > 7.00
25 | O=C(Nc1ccc(OC(F)(F)F)c(Cl)c1)c1cccc2c1OCCN2c1ncc(CO)cc1Cl [Example 2-04, N-(3-chloro-4-trifluoromethoxypheny)-4-(3-chloro-5-hydroxymethylpyridin-2-yl)-3,4-dihydro-2H-benzo[1,4]oxazine-8-carboxamide] | > 7.00
26 | O=C(Nc1ccc(C(F)(F)F)cc1)c1cccc2c1OCCN2c1ncc(CO)cc1Cl [Example 2-05, N-(4-trifluoromethylphenyl)-4-(3-chloro-5-hydroxymethylpyridin-2-yl)-3,4-dihydro-2H-benzo[1,4]oxazine-8-carboxamide] | > 7.00
27 | O=C(Nc1ccc(C(F)(F)F)c(F)c1)c1cccc2c1OCCN2c1ncc(CO)cc1Cl [Example 2-06, N-(3-fluoro-4-trifluoromethylphenyl)-4-(3-chloro-5-hydroxymethylpyridin-2-yl)-3,4-dihydro-2H-benzo[1,4]oxazine-8-carboxamide] | > 7.00
28 | O=C(Nc1ccc(C(F)(F)F)cc1)c1cccc2c1OCCN2c1ccc(CO)cn1 [Example 2-07, N-(4-trifluoromethylphenyl)-4-(5-hydroxymethylpyridin-2-yl)-3,4-dihydro-2H-benzo[1,4]oxazine-8-carboxamide hydrochloride] | > 7.00
29 | CC(C)COc1ccc(NC(=O)c2cccc3c2OCCN3c2ccc(CO)cn2)cc1 [Example 2-08, 4-(5-hydroxymethylpyridin-2-yl)-N-(4-isobutyloxyphenyl)-3,4-dihydro-2H-benzo[1,4]oxazine-8-carboxamide] | > 7.00
30 | COCc1cnc(N2CCOc3c(C(=O)Nc4ccc(C(F)(F)F)cc4)cccc32)c(Cl)c1 [Example 2-09, 4-(3-chloro-5-methoxymethylpyridin-2-yl)-N-(4-trifluoromethylpheny)-3,4-dihydro-2H-benzo[1,4]oxazine-8-carboxamide] | > 7.00
31 | O=C(Nc1ccc(OC(F)(F)F)cc1)c1cccc2c1OCCN2c1ncccc1CO [Example 2-11, N-(4-trifluoromethoxyphenyl)-4-(3-hydroxymethylpyridin-2-yl)-3,4-dihydro-2H-benzo[1,4]oxazine-8-carboxamide] | 6.00 to 7.00
32 | O=C(Nc1ccc(C(F)(F)F)nc1)c1cccc2c1OCCN2c1ncc(CO)cc1Cl [Example 2-16] | > 7.00

Results, then the compound that gave them:

Row | pIC50 | SMILES
33 | > 7.00 | Cc1ccc(N2CCOc3c(C(=O)Nc4ccc(N(C)C)c(F)c4)cccc32)nc1 [Example 1-163]
34 | > 7.00 | COCCN(c1ccc(NC(=O)c2cccc3c2OCCN3c2ccc(C)cn2)cc1F)C(C)C [Example 1-164]
35 | > 7.00 | CC(=O)OCCN(c1ccc(NC(=O)c2cccc3c2OCCN3c2ccc(C)cn2)cc1F)C(C)C [Example 1-165]
36 | > 7.00 | CCOC(=O)C1CCN(c2ccc(NC(=O)c3cccc4c3OCCN4c3ccc(C)cn3)cc2F)CC1 [Example 1-167]
37 | > 7.00 | COC1CCN(c2ccc(NC(=O)c3cccc4c3OCCN4c3ccc(C)cn3)cc2F)CC1 [Example 1-169]
38 | > 7.00 | COc1cc(NC(=O)c2cccc3c2OCCN3c2ccc(C)cn2)ccc1C [Example 1-172]
39 | > 7.00 | Cc1ccc(N2CCOc3c(C(=O)Nc4ccc(C)c(OCCO)c4)cccc32)nc1 [Example 1-173]
40 | > 7.00 | Cc1ccc(N2CCOc3c(C(=O)Nc4ccc(OC5CCN(C(=O)OC(C)(C)C)CC5)c(F)c4)cccc32)nc1 [Example 1-174]
41 | > 7.00 | Cc1ccc(N2CCOc3c(C(=O)N[C@H]4CC[C@H](COC(C)(C)C)CC4)cccc32)nc1 [Example 1-186]
42 | > 7.00 | Cc1ccc(N2CCOc3c(C(=O)N[C@H]4CC[C@H](OCC(C)C)CC4)cccc32)nc1 [Example 1-187]
43 | > 7.00 | Cc1ccc(N2CCOc3c(C(=O)N[C@H]4CC[C@H](COCC(C)C)CC4)cccc32)nc1 [Example 1-189]
44 | > 7.00 | Cc1ccc(N2CCOc3c(C(=O)N[C@H]4CC[C@H](C(C)C)CC4)cccc32)nc1 [Example 1-191]
45 | > 7.00 | CCC[C@H]1CC[C@H](NC(=O)c2cccc3c2OCCN3c2ccc(C)cn2)CC1 [Example 1-192]
46 | > 7.00 | Cc1ccc(N2CCOc3c(C(=O)N[C@H]4CC[C@H](OCC(C)(C)C)CC4)cccc32)nc1 [Example 1-193]
47 | > 7.00 | COCc1ccc(N2CCOc3c(C(=O)Nc4ccc(C(C)(C)C)cc4)cccc32)nc1 [Example 1-194]
48 | > 7.00 | CNc1ccc(N2CCOc3c(C(=O)Nc4ccc(OC(F)(F)F)cc4)cccc32)nc1 [Example 1-197]
49 | > 7.00 | COc1cnc(N2CCOc3c(C(=O)Nc4ccc(OC(F)(F)F)cc4)cccc32)c(Cl)c1 [Example 1-199]
50 | > 7.00 | COc1ccc(N2CCOc3c(C(=O)Nc4ccc(OC(F)(F)F)cc4)cccc32)nc1 [Example 1-202]
51 | > 7.00 | N#Cc1cccnc1N1CCOc2c(C(=O)Nc3ccc(OC(F)(F)F)cc3)cccc21 [Example 1-203]
52 | > 7.00 | O=C(Nc1ccc(OC(F)(F)F)cc1)c1cccc2c1OCCN2c1ncccc1OCc1ccccc1 [Example 1-209]
53 | > 7.00 | COCc1cnc(N2CCOc3c(C(=O)Nc4ccc(OC(F)(F)F)cc4)cccc32)c(Cl)c1 [Example 1-220]
